{"source": "patent US10683273B2", "about": "“Compounds as DNA probes, methods and applications thereof” (JAWAHARLAL NEHRU CENTRE FOR ADVANCED SCIENTIFIC RESEARCH, priority 2015, dated 2020)", "key": {"(A-T)20 [1]": {"test_system": "(A-T)20", "test": "Switch-on NIR-fluorescence enhancement with DNA", "format": "binding", "description": "(§1) All the chemicals, reagents, single-stranded oligos (dA20, dT20, dG20, dC20), self-complementary oligos {d(ATAT)5, (D1)mix, Drew-AT, Calf-Thymus DNA (CT-DNA), (DM1, DM2, DM3, DM4, DM5, DM6 and DM7)}, RNA, were purchased from Sigma-Aldrich. ^1H and ^13C NMR spectra were recorded on a Bruker AV-400 MHz spectrometer with chemical shifts reported as parts per million (ppm) (in DMSO-d6, tetramethylsilane as an internal standard) at 20° C. UV-vis absorption and emission spectra were measured in quartz cuvettes of 1 cm path length. High resolution mass spectra (HRMS) were obtained on Agilent Technologies 6538 UHD Accurate-Mass Q-TOF LC/MS spectrometer. All biophysical studies (UV-vis, fluorescence and Cirular dichroism) are carried out at the concentration 0-5 μM of probe, volume=500 μL, temperature=25° C. and time of incubation=2 minutes. HeLa cells and MCF7 cells used in the biological studies are obtained from “Molecular reproduction, development and genetics lab, Indian institute of science, Bangalore, India”\n(§2) Stock solutions of QCy-DT are prepared in double-distilled (dd) water in the order of 10^−3 M and stored at about −10° C. DNA stock solutions are prepared by dissolving oligo samples in double-distilled (dd) water in the order of 10^−4 M. Solutions of DNA duplexes are prepared in Tris-HCl (100 mM, pH=7.4) buffer solution by mixing complementary DNA strands in equimolar concentration. This solution is then subjected to annealing by heating up to about 85° C. for about 15 minutes, subsequently cooled to room temperature for about 7 hours and stored in the refrigerator (about 4° C.) for about 4 hours.\n(§3) The UV-vis absorption and emission spectra are recorded on Agilent Technologies Cary series UV-vis-NIR absorbance and Cary eclipse fluorescence spectrophotometers, respectively. Thermal denaturation (UV-melting) studies are carried out on Cary 5000 UV-vis-NIR spectrophotometer equipped with Cary temperature controller in the range of 10° C. to 90° C. with a ramp rate of 1° C./min. The variable temperature/wavelength mode is used. Absorption is monitored at 260 nm with regular 5° C. intervals. Melting temperatures (Tm) of DNA samples are calculated from the first derivatives of the absorption vs. temperature curves (thermal denaturation or melting curves) obtained by monitoring at 260 nm.\n(§4) For this, poly AT-duplexes such as (A-T)20, self-complementary d(ATAT)5, Drew-AT (14 base pair self-complementary sequence with 6AT-base pairs in central core), poly GC-duplex (G-C)20, (D1)mix, which is a 16 base pair long self-complementary duplex and CT-DNA as mixed AT/GC duplexes is chosen (Table 2). […] QCy-DT experience hydrophobic environment upon binding to minor groove of AT-rich duplex DNA which prevents aromatic π-stacking interactions with base pairs and other molecules of the probe that led to the hyperchromicity in the absorbance maximum of QCy-DT. […] Further, the absorption and emission properties of QCy-DT in the presence of poly AT- and GC-duplexes are studied. […] Further, we also studied the emission behavior of QCy-DT in presence of CT-DNA, (D1)mix, single-stranded (ss) DNAs and RNA. […] To ascertain the switch-on behavior of QCy-DT in the presence of AT-rich DNA duplex, viscosity measurements are performed by increasing the glycerol content in buffer solution. […] Consequently, the observed strong fluorescence enhancement in the presence of AT-rich DNA duplexes is the result of restriction of intramolecular rotation of probe QCy-DT in the constrained environments of DNA, which also facilitates the desolvation (water molecules) around QCy-DT in the hydrophobic environment of DNA duplex (FIG. 1c)."}, "(D1)mix [2]": {"test_system": "(D1)mix", "test": "Switch-on NIR-fluorescence enhancement with DNA", "format": "binding", "description": "as §1, §2, §3, §4"}, "(G-C)20": {"test_system": "(G-C)20", "test": "Switch-on NIR-fluorescence enhancement with DNA", "format": "binding", "settings": "QCy-DT 2 μM, (G-C)20 4 μM, Tris-HCl", "description": "as §1, §2, §3, §4"}, "Drew-AT [3]": {"test_system": "Drew-AT", "test": "Switch-on NIR-fluorescence enhancement with DNA", "format": "binding", "description": "as §1, §2, §3, §4"}, "[4]": {"test_system": "single-stranded (ss) DNAs", "test": "Switch-on NIR-fluorescence enhancement with DNA", "format": "binding", "settings": "ssDNAs", "description": "as §1, §2, §3, §4"}, "CT-DNA": {"test_system": "CT-DNA", "test": "Switch-on NIR-fluorescence enhancement with DNA", "format": "binding, Calf", "description": "(§5) All the chemicals, reagents, single-stranded oligos (dA20, dT20, dG20, dC20), self-complementary oligos {d(ATAT)5, (D1)mix, Drew-AT, Calf-Thymus DNA (CT-DNA), (DM1, DM2, DM3, DM4, DM5, DM6 and DM7)}, RNA, were purchased from Sigma-Aldrich. ^1H and ^13C NMR spectra were recorded on a Bruker AV-400 MHz spectrometer with chemical shifts reported as parts per million (ppm) (in DMSO-d6, tetramethylsilane as an internal standard) at 20° C. UV-vis absorption and emission spectra were measured in quartz cuvettes of 1 cm path length. High resolution mass spectra (HRMS) were obtained on Agilent Technologies 6538 UHD Accurate-Mass Q-TOF LC/MS spectrometer. All biophysical studies (UV-vis, fluorescence and Cirular dichroism) are carried out at the concentration 0-5 μM of probe, volume=500 μL, temperature=25° C. and time of incubation=2 minutes. […]\n(§6) The UV-vis absorption and emission spectra are recorded on Agilent Technologies Cary series UV-vis-NIR absorbance and Cary eclipse fluorescence spectrophotometers, respectively. […] Absorption is monitored at 260 nm with regular 5° C. intervals. Melting temperatures (Tm) of DNA samples are calculated from the first derivatives of the absorption vs. temperature curves (thermal denaturation or melting curves) obtained by monitoring at 260 nm. […]"}, "d(ATAT)5 [5]": {"test_system": "d(ATAT)5", "test": "Switch-on NIR-fluorescence enhancement with DNA", "format": "binding", "description": "as §5, §6"}, "(A-T)20 [6]": {"test_system": "(A-T)20", "test": "Fluorescence quantum yield in presence of DNA", "format": "binding", "settings": "in presence of (A-T)20", "description": "(§7) Cresyl violet perchlorate in ethanol (ϕ=0.54) is used as the standard for the fluorescence quantum yield calculation using the absorption of the test sample. The emission spectral area is obtained in the 550-800 nm regions. Dilute solutions (10^−6 M) are used to minimize reabsorption effects of the dyes. Quantum yields are determined using the following equation, ϕs=ϕr(Fs/Fr)×(Ar/As)×(ns^2/nr^2)\n(§8) Where, ϕr and ϕs are the quantum yield of reference and sample respectively, Fr and Fs are the integrated intensities (areas) of standard and sample spectra, nr and ns are the refractive indices of the reference and sample solution, Ar and As are the absorbance intensities of reference and sample respectively."}, "(D1)mix [7]": {"test_system": "(D1)mix", "test": "Fluorescence quantum yield in presence of DNA", "format": "binding", "description": "as §7, §8"}, "Drew-AT [8]": {"test_system": "Drew-AT", "test": "Fluorescence quantum yield in presence of DNA", "format": "binding", "description": "as §7, §8"}, "d(ATAT)5 [9]": {"test_system": "d(ATAT)5", "test": "Fluorescence quantum yield in presence of DNA", "format": "binding", "settings": "in presence of D(ATAT)5", "description": "as §7, §8"}}}
{"smiles": "C[n+]1c(/C=C/c2ccc(O)c(/C=C/c3sc4ccccc4[n+]3C)c2)sc2ccccc21", "note": "[QCy-DT, quinone cyanine-dithiazole]", "values": [{"measurement": "fluorescence enhancement", "setting": "(A-T)20 [1]; QCy-DT 2 μM, (A-T)20 4 μM, Tris-HCl", "result": "~250", "unit": "fold"}, {"measurement": "difference in fluorescence enhancement, (A-T)20 compared to d(ATAT)5", "setting": "(A-T)20 [1]; ratio (A-T)20 / d(ATAT)5", "result": "~4", "unit": "fold"}, {"measurement": "fluorescence enhancement", "setting": "(D1)mix [2]", "result": "~55", "unit": "fold"}, {"measurement": "fluorescence enhancement", "setting": "(G-C)20", "result": 8, "unit": "fold"}, {"measurement": "fluorescence enhancement", "setting": "Drew-AT [3]; QCy-DT 2 μM, Drew-AT 4 μM, λem=650 nm, vs probe alone", "result": "~200", "unit": "fold"}, {"measurement": "fluorescence enhancement with 5′-AAATTT-3′ core, higher than 5′-AATT-3′ core", "setting": "Drew-AT [3]; ratio 5′-AAATTT-3′ / 5′-AATT-3′", "result": "~4", "unit": "fold"}, {"measurement": "fluorescence enhancement", "setting": "[4]", "result": "~2", "unit": "fold"}, {"measurement": "fluorescence enhancement", "setting": "CT-DNA", "result": "~40", "unit": "fold"}, {"measurement": "fluorescence enhancement", "setting": "d(ATAT)5 [5]", "result": "~54", "unit": "fold"}, {"measurement": "Quantum Yield (ΦF)", "setting": "(A-T)20 [6]", "result": "~0.32"}, {"measurement": "Quantum Yield (ΦF)", "setting": "(D1)mix [7]", "result": 0.08}, {"measurement": "Quantum Yield (ΦF)", "setting": "Drew-AT [8]", "result": "~0.25"}, {"measurement": "Quantum Yield (ΦF)", "setting": "d(ATAT)5 [9]", "result": 0.08}]}
